Our source for the IC50 and inhibition values is US9434711B2 (Janssen Pharmaceutica, NV, priority 2007, dated 2016).

For this test, the target named is canine TRPM8 (Canis lupus familiaris, UniProt Q1A7N1). Description: In Vitro Canine TRPM8 Functional Assay (Ca2+ fluorescence, icilin activation). It is filed as cell-based. The settings on record: for IC50: read-out: IC50; for inhibition at 0.5 µM: compound at 0.5 μM, read-out: % Inh @ 0.5; for inhibition at 0.2 µM: read-out: % Inh @ 0.2. The method, boiled down:
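Canine TRPM8 stably expressed in HEK293; compound added 5 min before icilin challenge (~80% max response), with fluorescent Ca2+ signal tracked throughout.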

Setting [1] is: HEK293 cells stably expressing canine TRPM8, icilin activation, eight-point dose-response.
The mark [2] stands for this setting: canine TRPM8, icilin activation.
Setting [3] is: 0.2 μM compound, HEK293 cells stably expressing canine TRPM8, icilin activation.
Setting [4] is: compound at 0.2 μM, canine TRPM8, icilin activation.

Where two headings read alike, the source gives them in different places.

By IC50 is commonly meant the concentration that inhibits the measured activity by half.

Chain of canine TRPM8 (Q1A7N1 1-1104): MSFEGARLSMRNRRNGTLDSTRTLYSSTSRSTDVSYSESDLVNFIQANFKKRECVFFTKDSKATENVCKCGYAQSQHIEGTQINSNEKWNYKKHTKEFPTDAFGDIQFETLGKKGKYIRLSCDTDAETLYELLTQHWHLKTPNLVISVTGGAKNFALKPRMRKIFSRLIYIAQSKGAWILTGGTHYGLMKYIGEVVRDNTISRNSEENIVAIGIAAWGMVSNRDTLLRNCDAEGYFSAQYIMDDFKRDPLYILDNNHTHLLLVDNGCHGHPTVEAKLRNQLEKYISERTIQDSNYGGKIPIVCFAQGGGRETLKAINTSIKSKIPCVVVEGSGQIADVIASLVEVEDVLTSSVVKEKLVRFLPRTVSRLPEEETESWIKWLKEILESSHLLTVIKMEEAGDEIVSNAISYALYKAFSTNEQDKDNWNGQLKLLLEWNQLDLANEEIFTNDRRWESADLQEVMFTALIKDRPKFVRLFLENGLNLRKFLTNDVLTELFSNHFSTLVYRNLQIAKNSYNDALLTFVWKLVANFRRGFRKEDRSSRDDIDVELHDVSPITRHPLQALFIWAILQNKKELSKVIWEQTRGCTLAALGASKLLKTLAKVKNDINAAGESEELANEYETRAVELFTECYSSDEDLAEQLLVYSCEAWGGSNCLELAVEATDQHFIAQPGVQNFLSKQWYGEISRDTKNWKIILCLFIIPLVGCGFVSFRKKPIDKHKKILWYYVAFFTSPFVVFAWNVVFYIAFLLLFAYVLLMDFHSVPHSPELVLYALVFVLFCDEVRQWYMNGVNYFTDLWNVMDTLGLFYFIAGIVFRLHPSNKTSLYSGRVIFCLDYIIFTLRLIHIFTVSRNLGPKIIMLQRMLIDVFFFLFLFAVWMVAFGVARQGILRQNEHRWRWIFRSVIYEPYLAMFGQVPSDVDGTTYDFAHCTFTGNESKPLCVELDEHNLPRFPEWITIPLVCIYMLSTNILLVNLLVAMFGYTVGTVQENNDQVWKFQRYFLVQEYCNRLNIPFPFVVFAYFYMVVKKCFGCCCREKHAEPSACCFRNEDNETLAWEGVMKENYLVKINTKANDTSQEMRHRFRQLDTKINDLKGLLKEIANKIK

As to `O=S(=O)(c1ccccc1)N(Cc1ccccc1F)c1sc2ccccc2c1Br` [Compound 166, N-(3-Bromo-benzo[b]thiophen-2-yl)-N-(2-fluoro-benzyl)-benzenesulfonamide], under setting [1], the IC50 stood at 11.4 nM. Further, under setting [2], the inhibition at 0.5 µM was determined as 94%.
Turning to `COC(=O)c1ccc(S(=O)(=O)N(CCCF)c2cc3ccccc3s2)cc1` [Compound 842, N-(Benzo[b]thiophen-2-yl)-N-(3-fluoro-propyl)-4-carbomethoxy-benzenesulfonamide], the inhibition at 0.2 µM under setting [3] is 63%.
As to `Cc1c(N(Cc2cccc(OC(F)(F)F)c2)S(=O)(=O)CCCO)sc2ccccc12` [Compound 764, N-(3-Methyl-benzo[b]thiophen-2-yl)-N-(3-trifluoromethoxy-benzyl)-3-hydroxy-propanesulfonamide], the IC50 under setting [1] was determined as 22.1 nM. For the same compound, the inhibition at 0.2 µM under setting [4] worked out at 101%.
On the same counts, the results for `O=S(=O)(c1cccnc1)N(Cc1cc(Cl)ccc1F)c1sc2ccccc2c1Br` [Compound 324, N-(3-Bromo-benzo[b]thiophen-2-yl)-N-(2-fluoro-5-chloro-benzyl)-pyridin-3-ylsulfonamide] are 15 nM and 100%.
In the same order, the values of `CCCCN(c1cc2ccccc2s1)S(=O)(=O)c1ccc(C(=O)O)cc1` [Compound 556, N-(Benzo[b]thiophen-2-yl)-N-(butyl)-4-carboxy-benzenesulfonamide] are 48.2 nM and 99.3%.
In the same order, the values of `O=C(O)c1ccc(S(=O)(=O)N(CCCC(F)(F)F)c2sc3ccccc3c2Br)cc1` [Compound 394, N-(3-Bromo-benzo[b]thiophen-2-yl)-N-(4,4,4-trifluoro-butyl)-4-carboxy-benzenesulfonamide] are 9 nM and 101%.
Regarding `O=C(Nc1ccc(S(=O)(=O)N(CCC2CC2)c2sc3ccccc3c2Cl)cc1)C(F)(F)F` [Cpd 694, N-(3-Chloro-benzo[b]thiophen-2-yl)-N-(2-cyclopropyl-ethyl)-4-trifluoroacetamido-benzenesulfonamide], under setting [4], the inhibition at 0.2 µM is 42%.
Regarding `Cc1c(N(CCCCC(F)(F)F)S(=O)(=O)c2ccc(C(=O)O)cc2F)sc2ccccc12` [Compound 591, N-(3-Methyl-benzo[b]thiophen-2-yl)-N-(5,5,5-trifluoro-pentyl)-2-fluoro-4-carboxy-benzenesulfonamide], the IC50 under setting [1] came out at 4.2 nM. Further, the inhibition at 0.2 µM under setting [4] was 101%.
On the same counts, the results for `CCCCN(c1sc2ccccc2c1Br)S(=O)(=O)c1ccc(N(C)C)cc1` [Compound 560, N-(3-Bromo-benzo[b]thiophen-2-yl)-N-(butyl)-4-dimethylamino-benzenesulfonamide] are 65.7 nM and 104%.
Regarding `CC(C)(C)OC(=O)NCCN(c1sc2ccccc2c1Cl)S(=O)(=O)c1ccccc1` [Compound 86, N-(3-Chloro-benzo[b]thiophen-2-yl)-N-[2-(carbo-tert-butoxyamino)ethyl]-benzenesulfonamide], the IC50 under setting [1] was determined as 53 nM. Further, the inhibition at 0.5 µM under setting [2] is 101%.
With `CCCCN(c1sc2ccccc2c1Br)S(=O)(=O)c1ccc(-c2noc(=O)[nH]2)cc1` [Compound 443, N-(3-Bromo-benzo[b]thiophen-2-yl)-N-(butyl)-4-(5-oxo-4,5-dihydro-[1,2,4]oxadiazol-3-yl)-benzenesulfonamide], the IC50 under setting [1] came to 14 nM. Further, under setting [4], the inhibition at 0.2 µM is 94%.
Take `CCS(=O)(=O)N(Cc1ccc(F)c(OC)c1)c1cc2ccccc2s1` [Compound 828, N-(Benzo[b]thiophen-2-yl)-N-(4-fluoro-3-methoxy-benzyl)-ethanesulfonamide]: the inhibition at 0.2 µM under setting [3] was found to be 88%. For the same compound, where the note is “HEK293 cells stably expressing canine TRPM8, icilin activation, average of two or more determinations”, the IC50 stood at 42.7 nM.
`CSCCN(c1sc2ccccc2c1C)S(=O)(=O)c1ccccc1` [Compound 98, N-(3-Methyl-benzo[b]thiophen-2-yl)-N-(2-methylsulfanyl-ethyl)-benzenesulfonamide]: under setting [1], the IC50 turned out to be 15 nM. Besides, the inhibition at 0.2 µM under setting [4] turned out to be 97%.
